The results in this text go back to publication PMC10622577, “Structural basis for stabilisation of the RAD51 nucleoprotein filament by BRCA2” (Nature Communications, 2023).

The test system of one data set is RAD51 D184A. Kind of data set: EMSA of BRC4 disruption of NPF formation, RAD51 D184A. The data set is classed as binding, human. The conditions noted are these: BRC4 pre-mixed with RAD51 10 min, room temperature, before addition of ss- or dsDNA, performed once. As for the experimental part:
(§1) To test whether the acidic patch was also required for BRC4 binding to RAD51, we examined whether the interaction of a BRC4 peptide spanning BRCA2 amino acids 1514 to 1548 was impacted by the D184A and D184A, D187 mutations.
(§2) To assess RAD51 nucleoprotein (NPF) formation, wild-type and mutant RAD51 proteins were incubated with DNA in buffer: 25 mM HEPES pH 7.5, 150 mM NaCl, 2 mM DTT, 2 mM ATP, 5 mM CaCl2 for 15 minutes at room temperature. For filament binding of the TR2 peptide or His6-MBP-TR2 protein, the RAD51 NPFs were incubated with TR2 for further 5 minutes at room temperature. For filament binding of BRC4, the BRC4 peptide was pre-mixed with RAD51 for 10 minutes at room temperature before addition of DNA. For experiments with mono-streptavidin (mSA)-capped DNA, mSA (Sigma) was added in 5× molar excess of biotin labels for 15 minutes at room temperature prior to the addition of RAD51. Concentrations are provided in figures and DNA sequences for each experiment are reported in Supplementary Table 1.
(§3) Before electrophoresis, samples were mixed with a 0.5:1 volume of 50% (w/v) sucrose solution and analysed on a pre-run 0.5% (w/v) agarose gel in 0.5× TB buffer at 35 V for 2.5 hours at 4 °C. DNA was visualised by excitation of the fluorescent tag or, in the case of unlabelled DNA, by SYBR Gold staining. […]
For orientation: In EMSA bound probe runs differently from free probe, usually more slowly.

A further data set has as its system RAD51 D184A, D187A. Kind of data set: EMSA of BRC4 disruption of NPF formation, RAD51 D184A, D187A. The data set is classed as binding, human. Particulars: BRC4 pre-mixed with RAD51 10 min, room temperature, before addition of ss- or dsDNA, performed once. As for the experimental part: as §1, §2, §3
In another data set the test system is wild-type RAD51 NPF. Briefly: SPR of BRC4-induced disassembly of wild-type RAD51 NPF. The data set is classed as binding, human. Particulars: BRC4 0.1-15 μM, 120 s, CMA buffer pH 7.4, response minima, ss- and dsDNA, n = 3. The protocol: (§4) We investigated further the effect of the acidic patch mutations on TR2 binding using surface plasmon resonance (SPR). We developed an SPR assay whereby increasing amounts of TR2 peptide were added to RAD51 NPFs that had been assembled on biotinylated DNA coupled to a streptavidin chip (Supplementary Fig. 3A, Supplementary Table 1). […] We used the same SPR assay to assess the effect of the mutations on the ability of BRC4 to disrupt an established filament (Supplementary Fig. 4A, Supplementary Table 1).
(§5) All SPR experiments were performed using a Biacore T200 instrument and an S-series SA (Streptavidin) sensor chip. A single chip was used to immobilise biotinylated single- and double-stranded DNA in buffer: 25 mM HEPES pH 7.4, 100 mM NaCl, 1 mM EDTA. ssDNA and dsDNA were immobilised in different channels to a signal of 120 RU and 250 RU, respectively.
(§6) All binding experiments were performed in CMA buffer: 25 mM HEPES pH 7.4, 100 mM NaCl, 2 mM DTT, 2 mM ATP, 5 mM CaCl2, 5 mM MgCl2. 1 μM RAD51 (wild-type, D184A or D184A, D187A mutant proteins) was injected for 120 seconds followed by buffer for 120 seconds at a flow rate of 10 μl/min. TR2 or BRC4 peptides were then injected in a concentration titration series of 0.1, 0.25, 0.5, 0.75, 1, 2, 3, 5, 7.5, 10 and 15 μM for 120 seconds at a flow rate of […] followed by a dissociation time of 240 seconds. […]

The test system of a further data set is RAD51 D184A NPF. Kind of data set: SPR of BRC4-induced disassembly of RAD51 D184A NPF. The conditions noted are these: BRC4 0.1-15 μM, 120 s, CMA buffer pH 7.4, response minima, ss- and dsDNA, n = 3. It is filed as binding, human. As for the experimental part: as §4, §5, §6
In a further data set the test system is RAD51 D184A, D187A NPF. Kind of data set: SPR of BRC4-induced disassembly of RAD51 D184A, D187A NPF. It is filed as binding, human. The conditions noted are these: BRC4 0.1-15 μM, 120 s, CMA buffer pH 7.4, response minima, ss- and dsDNA, n = 3. The protocol:
as §4, §5, §6

In data set [1] the target is T1, RAD51;BRCA2 TR2 peptide (Homo sapiens;Homo sapiens, UniProt Q06609;P51587 1-339;, |). Kind of data set: cryo-EM structure; mSA caps; no bundling; EMSA: 25 mM HEPES pH 7.5, 150 mM NaCl, 2 mM DTT, 2 mM ATP, 5 mM CaCl2, room temperature; SPR: 25 mM HEPES pH 7.4, 100 mM NaCl, 2 mM DTT, 2 mM ATP, 5 mM CaCl2, 5 mM MgCl2. The conditions noted are these: tags: untagged (co-expressed with His6-MBP-BRC4, pMBP4-RAD51);; label: 5' biotin on both strands; 3' Cy3 on strand 1; blunt ends, internal mismatched bubble about 10 nt.

For data set [2], the target named is T1, RAD51;BRCA2 TR2 peptide. Briefly: cryo-EM structure; mSA caps; EMSA: 25 mM HEPES pH 7.5, 150 mM NaCl, 2 mM DTT, 2 mM ATP, 5 mM CaCl2, room temperature; SPR: 25 mM HEPES pH 7.4, 100 mM NaCl, 2 mM DTT, 2 mM ATP, 5 mM CaCl2, 5 mM MgCl2. Particulars: tags: untagged (co-expressed with His6-MBP-BRC4, pMBP4-RAD51);; label: 5' and 3' biotin.

Consider “EKIKEPTLLGFHTASGKKVKIAKESLDKVKNLFDE [BRC4, BRC4 peptide spanning BRCA2 amino acids 1514 to 1548]”, for which the “ability of BRC4 to disrupt RAD51 NPF formation” value with RAD51 D184A is listed as “moderately reduced”; in the data set on RAD51 D184A, D187A, “severely impaired”. The “disassembly of an established RAD51 NPF by BRC4” value in the data set on wild-type RAD51 NPF is recorded as “able to induce disassembly of a wild-type RAD51 NPF”. In the data set with RAD51 D184A NPF, the “disassembly of an established RAD51 NPF by BRC4 relative to wild-type” value was “moderately reduced”. Also, the “disassembly of an established RAD51 NPF by BRC4, reduction relative to wild-type” value with RAD51 D184A, D187A NPF is on record as “to a large degree”.

B1: 50-nt dsDNA doubly biotinylated Cy3 (dsDNA)
DNA 1: CCGACTGACGCTCAACATAGGTACCACACGGCGAGCTCGATGCACCTCCA
DNA 2: TGGAGGTGCATCGAGCTCGCGACAAACCTTCTATGTTGAGCGTCAGTCGG
With B1, the binding result with RAD51;BRCA2 TR2 peptide [1] is reported as “binds”.

B2: 60-nt ssDNA doubly biotinylated (ssDNA)
DNA: ATGGTGTGTGTAGGTTAATGTGAGGAGGAGAGGTGAAGAAGGAGGAGAGAAGAAGGAGGC
As for B2, in the data set with RAD51;BRCA2 TR2 peptide [2], the binding result is “binds”.
